PubChem BioAssay AID2060904 (Molecular Pharmacology Branch, DTP, NCI, 2025)

Test system: 349418-098-R-PDC complex spheroid viability
Assay: Anticancer human tumor 349418-098-R-PDC patient-derived lung adenocarcinoma cell line growth inhibition [RAS]
Details: for IC50: curve of first compound; for viability, T/C: stronger effect = lower value
Summary of the method: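 Agents were tested in combination matrices in half-log decrements from a top concentration at or near clinical Cmax (10 microM if undetermined). Targets were multi-cell spheroids of tumour lines plus HUVEC and MSC stromal cells.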

[1] = second compound 0.000949 µM, first compound 0.0316 µM
[2] = second compound 0.000949 µM, first compound 0.1 µM
[3] = second compound 0.000949 µM, first compound 0.316 µM
[4] = second compound 0.000949 µM, first compound 1 µM
[5] = second compound 0.000949 µM, first compound 3.16 µM
[6] = second compound 0.000949 µM, first compound 10 µM
[7] = second compound 0.003 µM, first compound 0.0316 µM
[8] = second compound 0.003 µM, first compound 0.1 µM
[9] = second compound 0.003 µM, first compound 0.316 µM
[10] = second compound 0.003 µM, first compound 1 µM
[11] = second compound 0.003 µM, first compound 3.16 µM
[12] = second compound 0.003 µM, first compound 10 µM
[13] = second compound 0.00949 µM, first compound 0.0316 µM
[14] = second compound 0.00949 µM, first compound 0.1 µM
[15] = second compound 0.00949 µM, first compound 0.316 µM
[16] = second compound 0.00949 µM, first compound 1 µM
[17] = second compound 0.00949 µM, first compound 3.16 µM
[18] = second compound 0.00949 µM, first compound 10 µM
[19] = second compound 0.03 µM, first compound 0.0316 µM
[20] = second compound 0.03 µM, first compound 0.1 µM
[21] = second compound 0.03 µM, first compound 0.316 µM
[22] = second compound 0.03 µM, first compound 1 µM
[23] = second compound 0.03 µM, first compound 3.16 µM
[24] = second compound 0.03 µM, first compound 10 µM
[25] = second compound 0.0949 µM, first compound 0.0316 µM
[26] = second compound 0.0949 µM, first compound 0.1 µM
[27] = second compound 0.0949 µM, first compound 0.316 µM
[28] = second compound 0.0949 µM, first compound 1 µM
[29] = second compound 0.0949 µM, first compound 3.16 µM
[30] = second compound 0.0949 µM, first compound 10 µM
[31] = second compound 0.3 µM, first compound 0.0316 µM
[32] = second compound 0.3 µM, first compound 0.1 µM
[33] = second compound 0.3 µM, first compound 0.316 µM
[34] = second compound 0.3 µM, first compound 1 µM
[35] = second compound 0.3 µM, first compound 3.16 µM
[36] = second compound 0.3 µM, first compound 10 µM
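Further: spheroids exposed to compound for seven days before viability readout.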

Work on `CC1(O)CCCC1n1c(=O)c(C(F)F)cc2cnc(NC3CCN(S(C)(=O)=O)CC3)nc21` (stereo unspecified) + CCn1c(-c2cccnc2C(C)OC)c2c3cc(ccc31)N1CCOC(CC(NC(=O)C(C(C)C)N(C)C(=O)C3(F)CCN(C(=O)C#CC(C)(C)N(C)C)CC3)C(=O)N3CCCC(N3)C(=O)OCC(C)(C)C2)C1 yielded an IC50 (second compound 0.000949 µM) of 0.0541 µM, an IC50 (second compound 0.003 µM) of 0.0549 µM and an IC50 (second compound 0.00949 µM) of 0.0763 µM. The IC50 (second compound 0.03 µM) was 0.071 µM, the IC50 (second compound 0.0949 µM) was 0.0642 µM and the IC50 (second compound 0.3 µM) was 0.0316 µM. The viability, T/C [1] was 60.9%, the viability, T/C [2] was 35.5% and the viability, T/C [3] was 27.6%. It also gave a viability, T/C [4] of 21.5%, a viability, T/C [5] of 18.8% and a viability, T/C [6] of 2.67%. It also gave a viability, T/C [7] of 60.3%, a viability, T/C [8] of 38.4% and a viability, T/C [9] of 24.2%. The viability, T/C [10] was 20.4%, the viability, T/C [11] was 17.7% and the viability, T/C [12] was 2.71%. The viability, T/C [13] was 67.8%, the viability, T/C [14] was 45.8% and the viability, T/C [15] was 23.9%. It also gave a viability, T/C [16] of 20.4%, a viability, T/C [17] of 15.9% and a viability, T/C [18] of 3.42%. The viability, T/C [19] was 70.3%, the viability, T/C [20] was 39.7% and the viability, T/C [21] was 24.8%. It also gave a viability, T/C [22] of 19.2%, a viability, T/C [23] of 20% and a viability, T/C [24] of 2.63%. The viability, T/C [25] was 74%, the viability, T/C [26] was 31.6% and the viability, T/C [27] was 22.3%. It also gave a viability, T/C [28] of 19.5%, a viability, T/C [29] of 16.4% and a viability, T/C [30] of 2.35%. For the same compound, the viability, T/C [31] was 52.5%, the viability, T/C [32] was 31.6% and the viability, T/C [33] was 22.4%. For the same compound, the viability, T/C [34] was 19%, the viability, T/C [35] was 18.4% and the viability, T/C [36] was 2.97%.

`CCC(CC)c1cc(NC2CCC(N)C2)n2nccc2n1` (stereo unspecified) + CCn1c(-c2cccnc2C(C)OC)c2c3cc(ccc31)N1CCOC(CC(NC(=O)C(C(C)C)N(C)C(=O)C3(F)CCN(C(=O)C#CC(C)(C)N(C)C)CC3)C(=O)N3CCCC(N3)C(=O)OCC(C)(C)C2)C1 showed an IC50 (second compound 0.000949 µM) of 0.84 µM, an IC50 (second compound 0.003 µM) of 1.32 µM and an IC50 (second compound 0.00949 µM) of 0.793 µM. For the same compound, the IC50 (second compound 0.03 µM) was 0.795 µM, the IC50 (second compound 0.0949 µM) was 1.06 µM and the IC50 (second compound 0.3 µM) was 0.629 µM. For the same compound, the viability, T/C [1] was 105%, the viability, T/C [2] was 105% and the viability, T/C [3] was 87.2%. It also gave a viability, T/C [4] of 45.2%, a viability, T/C [5] of 2.1% and a viability, T/C [6] of 2.24%. It also gave a viability, T/C [7] of 101%, a viability, T/C [8] of 94.5% and a viability, T/C [9] of 72.7%. It also gave a viability, T/C [10] of 66.2%, a viability, T/C [11] of 2.87% and a viability, T/C [12] of 1.93%. For the same compound, the viability, T/C [13] was 123%, the viability, T/C [14] was 105% and the viability, T/C [15] was 86%. The viability, T/C [16] was 44.8%, the viability, T/C [17] was 2.14% and the viability, T/C [18] was 2.37%. The viability, T/C [19] was 106%, the viability, T/C [20] was 85.5% and the viability, T/C [21] was 97.8%. It also gave a viability, T/C [22] of 38.5%, a viability, T/C [23] of 2.21% and a viability, T/C [24] of 2.43%. It also gave a viability, T/C [25] of 95.2%, a viability, T/C [26] of 78.8% and a viability, T/C [27] of 91.1%. The viability, T/C [28] was 52.4%, the viability, T/C [29] was 2.89% and the viability, T/C [30] was 2.25%. It also gave a viability, T/C [31] of 80%, a viability, T/C [32] of 68.8% and a viability, T/C [33] of 81.8%. The viability, T/C [34] was 31.9%, the viability, T/C [35] was 2.89% and the viability, T/C [36] was 3.28%.

Work on `CCN1CCN(Cc2ccc(Nc3ncc(F)c(-c4cc(F)c5nc(C)n(C(C)C)c5c4)n3)nc2)CC1` + CCn1c(-c2cccnc2C(C)OC)c2c3cc(ccc31)N1CCOC(CC(NC(=O)C(C(C)C)N(C)C(=O)C3(F)CCN(C(=O)C#CC(C)(C)N(C)C)CC3)C(=O)N3CCCC(N3)C(=O)OCC(C)(C)C2)C1 yielded an IC50 (second compound 0.000949 µM) of 0.012 µM, an IC50 (second compound 0.003 µM) of 0.0147 µM and an IC50 (second compound 0.00949 µM) of 0.0136 µM. It also gave an IC50 (second compound 0.03 µM) of 0.00864 µM, an IC50 (second compound 0.0949 µM) of 0.0098 µM and an IC50 (second compound 0.3 µM) of 0.00733 µM. For the same compound, the viability, T/C (second compound 0.000949 µM, first compound 0.00316 µM) was 80.1%, the viability, T/C (second compound 0.000949 µM, first compound 0.01 µM) was 54.1% and the viability, T/C [1] was 30.6%. For the same compound, the viability, T/C [2] was 22.5%, the viability, T/C [3] was 18.7% and the viability, T/C [4] was 13.1%. For the same compound, the viability, T/C (second compound 0.003 µM, first compound 0.00316 µM) was 85.5%, the viability, T/C (second compound 0.003 µM, first compound 0.01 µM) was 61% and the viability, T/C [7] was 28%. It also gave a viability, T/C [8] of 20.3%, a viability, T/C [9] of 16.8% and a viability, T/C [10] of 13.4%. For the same compound, the viability, T/C (second compound 0.00949 µM, first compound 0.00316 µM) was 96%, the viability, T/C (second compound 0.00949 µM, first compound 0.01 µM) was 52.2% and the viability, T/C [13] was 39.1%. The viability, T/C [14] was 22.3%, the viability, T/C [15] was 16.1% and the viability, T/C [16] was 14.7%. It also gave a viability, T/C (second compound 0.03 µM, first compound 0.00316 µM) of 80.5%, a viability, T/C (second compound 0.03 µM, first compound 0.01 µM) of 44.6% and a viability, T/C [19] of 29%. For the same compound, the viability, T/C [20] was 21.5%, the viability, T/C [21] was 15.9% and the viability, T/C [22] was 14.4%. The viability, T/C (second compound 0.0949 µM, first compound 0.00316 µM) was 73.4%, the viability, T/C (second compound 0.0949 µM, first compound 0.01 µM) was 48.7% and the viability, T/C [25] was 34.5%. For the same compound, the viability, T/C [26] was 16.6%, the viability, T/C [27] was 20.6% and the viability, T/C [28] was 12.5%. The viability, T/C (second compound 0.3 µM, first compound 0.00316 µM) was 61.5%, the viability, T/C (second compound 0.3 µM, first compound 0.01 µM) was 45.5% and the viability, T/C [31] was 33.2%. For the same compound, the viability, T/C [32] was 21.4%, the viability, T/C [33] was 19% and the viability, T/C [34] was 13.5%.
